Where a name gives a salt, the structure may show the parent alone.

The assay addresses T1, recombinant guanylate cyclase reporter cell line (Rattus norvegicus, UniProt P19686+P20595).
T1 construct: expressed in transfected cells
T1 sequence (P19686 1-690): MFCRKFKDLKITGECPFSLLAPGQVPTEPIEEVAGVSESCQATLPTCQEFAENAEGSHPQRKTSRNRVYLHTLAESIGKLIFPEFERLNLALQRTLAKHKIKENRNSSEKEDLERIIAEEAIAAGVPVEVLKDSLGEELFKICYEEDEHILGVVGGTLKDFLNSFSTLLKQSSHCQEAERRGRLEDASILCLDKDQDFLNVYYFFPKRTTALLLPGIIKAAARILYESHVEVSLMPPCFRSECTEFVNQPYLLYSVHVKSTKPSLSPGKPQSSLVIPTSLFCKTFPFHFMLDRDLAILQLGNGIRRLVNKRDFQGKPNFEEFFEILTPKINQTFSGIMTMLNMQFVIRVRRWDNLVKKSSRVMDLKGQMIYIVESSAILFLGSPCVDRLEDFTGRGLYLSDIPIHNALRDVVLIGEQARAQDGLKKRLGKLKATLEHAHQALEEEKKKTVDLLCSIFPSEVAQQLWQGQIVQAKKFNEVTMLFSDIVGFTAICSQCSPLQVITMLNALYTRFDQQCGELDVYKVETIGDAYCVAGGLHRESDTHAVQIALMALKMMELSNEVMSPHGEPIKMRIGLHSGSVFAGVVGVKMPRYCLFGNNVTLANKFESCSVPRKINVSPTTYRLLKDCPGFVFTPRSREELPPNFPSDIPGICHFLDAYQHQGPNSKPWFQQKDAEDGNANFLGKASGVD
T1 sequence (P20595 1-619): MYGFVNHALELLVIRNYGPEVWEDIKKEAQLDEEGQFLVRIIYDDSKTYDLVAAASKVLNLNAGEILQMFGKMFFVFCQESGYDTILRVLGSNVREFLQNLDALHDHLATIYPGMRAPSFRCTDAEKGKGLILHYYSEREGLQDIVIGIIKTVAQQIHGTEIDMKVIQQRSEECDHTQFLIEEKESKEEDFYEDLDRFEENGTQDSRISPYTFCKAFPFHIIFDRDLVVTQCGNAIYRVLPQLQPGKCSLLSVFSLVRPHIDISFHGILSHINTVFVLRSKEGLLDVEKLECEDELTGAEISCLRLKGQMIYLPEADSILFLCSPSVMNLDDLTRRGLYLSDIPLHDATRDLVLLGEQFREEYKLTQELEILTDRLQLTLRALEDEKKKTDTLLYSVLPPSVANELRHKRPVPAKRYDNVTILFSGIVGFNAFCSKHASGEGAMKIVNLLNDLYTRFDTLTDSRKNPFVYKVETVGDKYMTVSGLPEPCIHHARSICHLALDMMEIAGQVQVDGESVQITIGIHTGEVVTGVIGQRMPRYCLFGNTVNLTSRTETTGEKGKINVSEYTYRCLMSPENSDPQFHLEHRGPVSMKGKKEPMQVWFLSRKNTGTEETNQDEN
Description: Effect on a recombinant guanylate cyclase reporter cell line (B-2). In kind it is cell-based. Conditions: in some cases mean values for individual determinations. Here is the method: B-2. Effect on a Recombinant Guanylate Cyclase Reporter Cell Line
The cellular effect of the inventive compounds is determined using a recombinant guanylate cyclase reporter cell line, as described in F. Wunder et al., Anal. Biochem. 339, 104-112 (2005).
Representative MEC values (MEC=minimum effective concentration) for the inventive compounds are shown in the table below (in some cases as mean values for individual determinations): […]

Consider `Cc1cc(OCc2c(F)cccc2F)n2nc(C)c(C(=O)NCCC(C)(C)N)c2c1` [Example 121, N-(3-Amino-3-methylbutyl)-7-[(2,6-difluorobenzyl)oxy]-2,5-dimethylpyrazolo[1,5-a]pyridine-3-carboxamide], for which the “MEC (minimum effective concentration)” value is 10 µM. Then `Cc1cc(OCc2c(F)cccc2F)n2nc(C)c(C(=O)NCC(C)(N)CCF)c2c1` (single isomer, unassigned) [Example 50, ent-N-(2-Amino-4-fluoro-2-methylbutyl)-7-[(2,6-difluorobenzyl)oxy]-2,5-dimethylpyrazolo[1,5-a]pyridine-3-carboxamide], with 0.3 µM; and `Cc1cc(OCc2c(F)cccc2F)n2nc(C)c(C(=O)NCC(N)c3csc(C)n3)c2c1` (racemic) [Example 73, rac-N-[2-Amino-2-(2-methyl-1,3-thiazol-4-yl)ethyl]-7-[(2,6-difluorobenzyl)oxy]-2,5-dimethylpyrazolo[1,5-a]pyridine-3-carboxamide trifluoroacetate], with 3.0 µM; and `Cc1cc(OCc2c(F)cccc2F)n2nc(C)c(C(=O)NCC(C)(N)COc3ccc(F)c(F)c3)c2c1` (racemic) [Example 79, rac-N-[2-Amino-3-(3,4-difluorophenoxy)-2-methylpropyl]-7-[(2,6-difluorobenzyl)oxy]-2,5-dimethylpyrazolo[1,5-a]pyridine-3-carboxamide], with 3.0 µM. Take `CSCCC(N)CNC(=O)c1c(C)nn2c(OCc3c(F)cccc3F)cc(C)cc12` (racemic) [Example 156, rac-N-[2-Amino-4-(methylsulphanyl)butyl]-7-[(2,6-difluorobenzyl)oxy]-2,5-dimethylpyrazolo[1,5-a]pyridine-3-carboxamide]: the “MEC (minimum effective concentration)” value stood at 0.3 µM. Turning to `Cc1cc(OCc2c(F)cccc2F)n2nc(C)c(C(=O)NC3Cc4ccccc4C3N)c2c1` (stereo not shown) [Example 70, N-(1-Amino-2,3-dihydro-1H-inden-2-yl)-7-[(2,6-difluorobenzyl)oxy]-2,5-dimethylpyrazolo[1,5-a]pyridine-3-carboxamide], the “MEC (minimum effective concentration)” value was determined as 3.0 µM. The figure for `Cc1cc(OCc2c(F)cccc2F)n2nc(C)c(C(=O)NC3CCC3(C)N)c2c1` (racemic) [Example 91, rac-N-(2-Amino-2-methylcyclobutyl)-7-[(2,6-difluorobenzyl)oxy]-2,5-dimethylpyrazolo[1,5-a]pyridine-3-carboxamide] is 3.0 µM. The figure for `Cc1cc(OCc2c(F)cccc2F)n2nc(C)c(C(=O)NCC3CNCCO3)c2c1` (racemic) [Example 142, rac-7-[(2,6-Difluorobenzyl)oxy]-2,5-dimethyl-N-(morpholin-2-ylmethyl)pyrazolo[1,5-a]pyridine-3-carboxamide] is 10 µM; for `Cc1cc(OCc2c(F)ccc(F)c2F)n2nc(C)c(C(=O)Nc3c(C)nn(Cc4ccc(F)cc4)c3C)c2c1` [Example 16, N-[1-(4-Fluorobenzyl)-3,5-dimethyl-1H-pyrazol-4-yl]-2,5-dimethyl-7-[(2,3,6-trifluorobenzyl)oxy]pyrazolo[1,5-a]pyridine-3-carboxamide] it is 0.3 µM. Then `C=CCONC(=O)c1c(C)nn2c(OCc3c(F)cccc3F)cc(C)cc12` [Example 65, N-(Allyloxy)-7-[(2,6-difluorobenzyl)oxy]-2,5-dimethylpyrazolo[1,5-a]pyridine-3-carboxamide trifluoroacetate], with 3.0 µM; and `COC(=O)c1cccc(C(N)CNC(=O)c2c(C)nn3c(OCc4c(F)cccc4F)cc(C)cc23)c1` (racemic) [Example 114, rac-Methyl 3-{1-amino-2-[({7-[(2,6-difluorobenzyl)oxy]-2,5-dimethylpyrazolo[1,5-a]pyridin-3-yl}carbonyl)amino]ethyl}benzoate], with 10 µM. Consider `Cc1cc(OCc2c(F)cccc2F)n2nc(C)c(C(=O)NC[C@@H]3CCCCN3)c2c1` [Example 129, 7-[(2,6-Difluorobenzyl)oxy]-2,5-dimethyl-N-[(2S)-piperidin-2-ylmethyl]pyrazolo[1,5-a]pyridine-3-carboxamide], for which the “MEC (minimum effective concentration)” value turned out to be 3.0 µM. The figure for `Cc1cc(OCc2c(F)cccc2F)n2nc(C)c(C(=O)NCC(C)(N)CF)c2c1` (single isomer, unassigned) [Example 41, ent-N-(2-Amino-3-fluoro-2-methylpropyl)-7-[(2,6-difluorobenzyl)oxy]-2,5-dimethylpyrazolo[1,5-a]pyridine-3-carboxamide] is 0.3 µM; for `CCCC(C)(N)CNC(=O)c1c(C)nn2c(OCc3c(F)cccc3F)cc(OC)cc12` (racemic) [Example 171, rac-N-(2-Amino-2-methylpentyl)-7-[(2,6-difluorobenzyl)oxy]-5-methoxy-2-methylpyrazolo[1,5-a]pyridine-3-carboxamide] it is 1.0 µM; for `Cc1cc(OCc2c(F)ccc(F)c2F)n2nc(C)c(C(=O)NCc3ncc[nH]3)c2c1` [Example 18, N-(1H-Imidazol-2-ylmethyl)-2,5-dimethyl-7-[(2,3,6-trifluorobenzyl)oxy]pyrazolo[1,5-a]pyridine-3-carboxamide] it is 3.0 µM. Then `Cc1cc(OCc2c(F)cccc2F)n2nc(C)c(C(=O)NNc3ccc(F)cc3)c2c1` [Example 66, 7-[(2,6-Difluorobenzyl)oxy]-N′-(4-fluorophenyl)-2,5-dimethylpyrazolo[1,5-a]pyridine-3-carbohydrazide trifluoroacetate], with 0.3 µM; and `Cc1cc(OCc2c(F)cccc2F)n2nc(C)c(C(=O)NC3CCCc4c(N)cccc43)c2c1` (racemic) [Example 139, rac-N-(5-Amino-1,2,3,4-tetrahydronaphthalen-1-y1)-74(2,6-difluorobenzyl)oxy]-2,5-dimethylpyrazolo[1,5-a]pyridine-3-carboxamide], with 1.0 µM. The figure for `Cc1cc(OCc2c(F)cccc2F)n2nc(C)c(C(=O)NCC3CCC(C#N)CC3)c2c1` (stereo not shown) [Example 62, N-[(4-Cyanocyclohexyl)methyl]-7-[(2,6-difluorobenzyl)oxy]-2,5-dimethylpyrazolo[1,5-a]pyridine-3-carboxamide] is 3.0 µM; for `Cc1cc(OCc2c(F)cccc2F)n2nc(C)c(C(=O)NCC(N)c3cccc(OC(F)F)c3)c2c1` (racemic) [Example 116, rac-N-{2-Amino-2-[3-(difluoromethoxy)phenyl]ethyl}-7-[(2,6-difluorobenzyl)oxy]-2,5-dimethylpyrazolo[1,5-a]pyridine-3-carboxamide] it is 3.0 µM. For `CCC(C)(N)CNC(=O)c1c(C2CC2)nn2c(OCc3c(F)cccc3F)cc(C)cc12` (single isomer, unassigned) [Example 54, ent-N-(2-Amino-2-methylbutyl)-2-cyclopropyl-7-[(2,6-difluorobenzyl)oxy]-5-methylpyrazolo[1,5-a]pyridine-3-carboxamide], the “MEC (minimum effective concentration)” value came to 0.3 µM. Then `Cc1cc(OCc2c(F)cccc2F)n2nc(C)c(C(=O)N[C@H]3CCNC3=O)c2c1` [Example 149, 7-[(2,6-Difluorobenzyl)oxy]-2,5-dimethyl-N-[(3S)-2-oxopyrrolidin-3-yl]pyrazolo[1,5-a]pyridine-3-carboxamide], with 1.0 µM; and `Cc1ccc2c(c1)OC(C)(C)CC2NC(=O)c1c(C)nn2c(OCc3c(F)cccc3F)cc(C)cc12` (racemic) [Example 137, rac-7-[(2,6-Difluorobenzyl)oxy]-2,5-dimethyl-N-(2,2,7-trimethyl-3,4-dihydro-2H-chromen-4-yl)pyrazolo[1,5-a]pyridine-3-carboxamide], with 1.0 µM.
